Reference: US9283244B2, “Treatment of cancer by inhibiting activity or expression of late SV-40 factor” (Virginia Commonwealth University, priority 2010, dated 2016)

Key:
[1] = system: Akt; experiment: Western blot of Akt activation in HepG3 cells; format: cell-based, human
Description: (§1) FIGS. 12A-F. Inhibition of CD44 and c-Met by SU11274 blocks LSF function. A. LSF-17 cells were treated with normal IgG or anti-CD44 antibody and then subjected to Matrigel invasion assay. (B, C) Cell viability (MTT) assay of LSF-17 (B) and QGY-7703 (C) cells treated with SU11274 (5 μM) for the indicated time period. (D, E) Matrigel invasion assays of LSF-17 (D) and QGY-7703 (E) cells treated with SU11274 (5 μM). For SU11274 removal, cells were treated with SU11274 for 24 h before seeding them in the invasion chamber in SU11274-free condition. For A-E, data represent mean±SEM. F. HepG3 cells were untreated or treated with OPN (100 ng/ml) and with SU11274 (5 μM) for 24 h and the expression of the indicated proteins were detected by Western blot analysis. Asterisk (*) represents statistically significant difference (p<0.05).
(§2) Preparation of whole cell lysates and Western blot analyses were performed as described (5). The primary antibodies used were anti-LSF (1:2,000; mouse monoclonal; BD Biosciences), anti-pERK (1:2,000; rabbit polyclonal; Cell Signaling), anti-ERK (1:2,000; rabbit polyclonal; Cell Signaling), anti-pAKT (1:1,000; rabbit polyclonal; Cell Signaling) and anti-AKT (1:1,000; rabbit polyclonal; Cell Signaling). Blots were stripped and normalized by re-probing with anti-β-tubulin (1:1,000; mouse monoclona; Sigma).
Treatment with OPN increased p-Akt/Akt ratio to 1.42 which was decreased to 0.63 upon SU11274 treatment.

[2] = target: T1, CD44 and c-Met (Homo sapiens, UniProt P16070); experiment: Co-immunoprecipitation of CD44 and c-Met in HepG3 cells; format: cell-based
T1 construct: endogenous in cells; host or cells: HepG3 cells (lysates)
T1 sequence (P16070 21-742): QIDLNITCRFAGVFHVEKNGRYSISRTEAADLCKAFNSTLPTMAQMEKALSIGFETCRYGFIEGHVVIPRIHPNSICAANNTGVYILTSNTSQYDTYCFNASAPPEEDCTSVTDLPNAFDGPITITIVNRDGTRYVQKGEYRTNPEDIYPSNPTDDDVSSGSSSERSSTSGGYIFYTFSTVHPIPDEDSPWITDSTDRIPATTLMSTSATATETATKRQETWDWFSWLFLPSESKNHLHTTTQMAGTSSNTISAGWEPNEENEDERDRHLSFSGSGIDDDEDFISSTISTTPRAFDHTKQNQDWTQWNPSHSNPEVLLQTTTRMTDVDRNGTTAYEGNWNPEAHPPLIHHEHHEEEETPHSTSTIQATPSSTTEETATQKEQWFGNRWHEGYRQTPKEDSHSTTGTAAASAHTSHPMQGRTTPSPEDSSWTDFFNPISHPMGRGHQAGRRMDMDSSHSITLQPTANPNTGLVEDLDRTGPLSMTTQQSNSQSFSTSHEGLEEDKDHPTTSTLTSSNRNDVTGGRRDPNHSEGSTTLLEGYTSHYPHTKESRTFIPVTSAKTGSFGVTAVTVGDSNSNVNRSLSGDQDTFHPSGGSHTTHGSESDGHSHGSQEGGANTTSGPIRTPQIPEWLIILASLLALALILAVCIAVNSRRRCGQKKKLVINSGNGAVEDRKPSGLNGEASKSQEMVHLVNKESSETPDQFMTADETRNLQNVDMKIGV
T1 sequence (P08581 308-1390 partner limits assumed): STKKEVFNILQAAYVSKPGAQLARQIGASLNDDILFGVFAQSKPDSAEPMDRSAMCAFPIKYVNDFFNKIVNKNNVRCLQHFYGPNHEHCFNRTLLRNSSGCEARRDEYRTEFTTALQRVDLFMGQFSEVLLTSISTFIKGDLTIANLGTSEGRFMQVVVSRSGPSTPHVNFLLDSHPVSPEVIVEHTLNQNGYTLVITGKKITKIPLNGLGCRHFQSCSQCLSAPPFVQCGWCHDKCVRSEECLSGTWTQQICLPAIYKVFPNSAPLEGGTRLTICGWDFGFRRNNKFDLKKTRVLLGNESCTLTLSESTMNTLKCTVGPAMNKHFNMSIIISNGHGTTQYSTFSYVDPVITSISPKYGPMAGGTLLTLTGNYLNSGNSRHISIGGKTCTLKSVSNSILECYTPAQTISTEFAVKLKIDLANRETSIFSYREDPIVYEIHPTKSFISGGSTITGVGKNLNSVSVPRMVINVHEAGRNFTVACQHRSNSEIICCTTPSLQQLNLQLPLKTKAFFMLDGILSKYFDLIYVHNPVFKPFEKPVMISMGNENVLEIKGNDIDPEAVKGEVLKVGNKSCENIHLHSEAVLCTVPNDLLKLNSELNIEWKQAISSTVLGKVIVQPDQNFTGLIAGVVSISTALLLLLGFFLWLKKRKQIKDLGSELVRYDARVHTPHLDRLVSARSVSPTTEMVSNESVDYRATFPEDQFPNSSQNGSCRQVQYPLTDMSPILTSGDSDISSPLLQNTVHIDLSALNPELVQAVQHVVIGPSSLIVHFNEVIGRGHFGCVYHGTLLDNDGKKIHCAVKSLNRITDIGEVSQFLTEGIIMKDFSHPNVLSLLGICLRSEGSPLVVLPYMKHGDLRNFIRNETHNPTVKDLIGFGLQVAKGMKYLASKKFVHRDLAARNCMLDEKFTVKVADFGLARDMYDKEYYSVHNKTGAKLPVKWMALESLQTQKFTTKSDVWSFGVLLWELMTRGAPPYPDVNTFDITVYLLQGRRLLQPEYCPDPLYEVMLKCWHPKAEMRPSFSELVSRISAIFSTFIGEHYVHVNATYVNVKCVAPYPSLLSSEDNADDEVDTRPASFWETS
T1 sequence (P08581 25-307 partner limits assumed): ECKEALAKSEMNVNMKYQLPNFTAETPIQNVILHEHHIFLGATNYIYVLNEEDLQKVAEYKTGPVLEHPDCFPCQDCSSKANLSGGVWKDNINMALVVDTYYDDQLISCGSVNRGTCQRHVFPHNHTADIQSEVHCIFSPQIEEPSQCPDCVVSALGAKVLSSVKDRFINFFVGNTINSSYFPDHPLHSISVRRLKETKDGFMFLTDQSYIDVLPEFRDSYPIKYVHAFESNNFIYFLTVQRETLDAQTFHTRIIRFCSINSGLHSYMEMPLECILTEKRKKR
Description: FIGS. 11A-E. OPN facilitates c-Met activation via CD44 receptor. A. Left panel, HepG3 cells were cultured in serum-free conditions. Right panel, HepG3 cells were cultured in serum-containing medium and untreated or treated with OPN (100 ng/ml) for 24 h. Cell lysates were subjected to immunoprecipitation by anti-c-Met antibody and immunoblotting with anti-CD44, anti-[…] integrin and anti-c-Met antibodies. B. The culture conditions are the same as in A. Immunoprecipitation was done with anti-CD44 antibody and immunoblotting was done with anti-c-Met and anti-CD44 antibody. C. HepG3 cell were cultured in serum-free conditions and then untreated or treated with OPN (100 ng/ml) for 24 h. Immunoprecipitation was done with anti-CD44 antibody and immunoblotting was done with anti-p-c-Met or anti-CD44 antibodies. D. Lysates from LSF-17 and QGY-7703 cells were subjected to immunoprecipitation by anti-c-Met antibody and immunoblotting by anti-CD44, anti-αvβ3 integrin and anti-c-Met antibodies. E. Lysates from LSF-17 and QGY-7703 cells were subjected to immunoprecipitation by anti-CD44 antibody and immunoblotting by anti-c-Met, anti-p-c-Met and anti-CD44 antibodies. The bottom panel serves as inputs for D and E. IgG was used as a control in all the experiments.
We next explored the molecular mechanism of c-Met activation by OPN using co-immunoprecipitation analysis. […]

[3] = system: ERK; experiment: Western blot of ERK activation in HepG3 cells; format: cell-based, human; details: 24 h
Description: as §1
as §2, with “Sigma). […]” for “Sigma).”

[4] = target: T2, c-Met (Homo sapiens, UniProt P08581); experiment: Western blot of c-Met activation (p-c-Met) in HepG3 cells; format: cell-based
T2 construct: endogenous in cells; host or cells: HepG3 cells; LSF-17 clone of HepG3 (stably overexpresses LSF, not c-Met)
T2 sequence (P08581 25-1390): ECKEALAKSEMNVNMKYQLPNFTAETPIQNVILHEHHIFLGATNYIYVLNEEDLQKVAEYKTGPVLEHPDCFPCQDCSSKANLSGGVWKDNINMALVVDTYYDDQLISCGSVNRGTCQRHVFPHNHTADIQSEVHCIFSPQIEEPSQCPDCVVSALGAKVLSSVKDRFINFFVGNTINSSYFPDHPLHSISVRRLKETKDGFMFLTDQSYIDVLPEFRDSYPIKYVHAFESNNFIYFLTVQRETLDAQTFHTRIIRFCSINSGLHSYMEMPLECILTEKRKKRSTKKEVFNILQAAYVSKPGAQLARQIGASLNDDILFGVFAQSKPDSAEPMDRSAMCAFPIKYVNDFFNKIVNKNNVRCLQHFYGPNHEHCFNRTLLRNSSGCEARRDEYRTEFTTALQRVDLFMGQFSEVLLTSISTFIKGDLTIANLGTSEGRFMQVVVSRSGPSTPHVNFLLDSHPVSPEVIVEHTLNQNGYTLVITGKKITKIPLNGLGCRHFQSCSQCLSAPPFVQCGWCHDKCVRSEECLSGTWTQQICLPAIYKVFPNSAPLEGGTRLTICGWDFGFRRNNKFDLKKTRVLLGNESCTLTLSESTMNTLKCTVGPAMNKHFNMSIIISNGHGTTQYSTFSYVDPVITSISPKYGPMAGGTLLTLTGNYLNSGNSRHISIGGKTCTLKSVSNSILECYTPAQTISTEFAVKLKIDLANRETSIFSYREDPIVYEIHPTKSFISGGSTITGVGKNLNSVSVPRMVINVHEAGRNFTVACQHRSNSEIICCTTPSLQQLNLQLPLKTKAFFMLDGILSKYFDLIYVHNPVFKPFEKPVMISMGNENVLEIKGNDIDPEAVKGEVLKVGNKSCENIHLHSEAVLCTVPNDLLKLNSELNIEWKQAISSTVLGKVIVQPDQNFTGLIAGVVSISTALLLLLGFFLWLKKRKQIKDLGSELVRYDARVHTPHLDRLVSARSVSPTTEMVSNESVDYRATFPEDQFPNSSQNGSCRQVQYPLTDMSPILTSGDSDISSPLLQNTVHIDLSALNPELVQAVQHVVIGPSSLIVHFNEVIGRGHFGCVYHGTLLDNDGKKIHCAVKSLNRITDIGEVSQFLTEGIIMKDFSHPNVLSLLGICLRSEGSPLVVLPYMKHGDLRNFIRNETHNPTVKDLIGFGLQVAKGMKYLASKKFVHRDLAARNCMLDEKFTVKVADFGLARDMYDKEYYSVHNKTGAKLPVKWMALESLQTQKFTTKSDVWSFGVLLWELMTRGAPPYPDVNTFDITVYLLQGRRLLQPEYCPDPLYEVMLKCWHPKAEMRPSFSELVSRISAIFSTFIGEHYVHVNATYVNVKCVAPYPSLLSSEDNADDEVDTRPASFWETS
Description: FIGS. 10A-D. OPN activates c-Met. A. HepG3 cells were treated with OPN (100 ng/ml) for the indicated time points and p-c-Met and total c-Met levels were analyzed by Western blot analysis. B. Expression of OPN and p-c-Met was determined by immunohistochemical analysis in FFPE sections of normal liver and matched HCC. A representative figure is shown from one patient. C. Statistical correlation between OPN and phospho-c-Met levels in 50 human HCC patients analyzed by Pearson's test. D. Left panel: LSF-17consh-15 (Consh-15) is a clone of LSF-17 cells that stably expresses control scrambled shRNA and LSF-17-OPNsh-6 (OPNsh-6) and LSF-17-OPNsh-18 (OPNsh-18) are clones of LSF-17 cells stably expressing OPN shRNA. The expression of the indicated proteins was detected by Western blot analysis. Right panel, LSF-17 clone of HepG3 cells were treated with normal IgG (mouse and rabbit; Santa Cruz), anti-αvβ3 integrin antibody (mouse; Millipore) or anti-CD44 antibody (rabbit; Santa Cruz) at a concentration of 20 μg/ml for 24 h and the expression of the indicated proteins was detected by Western blot analysis.
as §1, §2
To confirm the link between OPN and c-Met, HepG3 cells were treated with OPN (100 ng/ml) for 24 h in the presence or absence of SU11274. […] Treatment with OPN increased p-Akt/Akt ratio to 1.42 which was decreased to 0.63 upon SU11274 treatment.

[5] = system: QGY-7703 cells; experiment: Matrigel invasion assay, QGY-7703 cells; format: cell-based, human
Description: as §1
(§3) FIGS. 13A-F. Genetic inhibition of c-Met by shRNA blocks LSF function. […] A. Expression of the indicated proteins was detected in the indicated cells by Western blot analysis. […] D. QGY-7703 cells were transfected with control scrambled siRNA (siCon) or c-Met siRNA (siMet) and cell viability was measured by MTT assay. […] F. The expression of the indicated proteins was detected in the indicated cells by Western blot analysis. […]
(§4) Primary rat hepatocytes were isolated and cultured as described (19). […] Cell viability was determined by standard MTT assays as described (5). […]

[6] = system: parental HepG3 cells; experiment: Cell viability, parental HepG3 cells; format: cell-based, human; details: SU11274 treatment; data not shown
Description: Primary rat hepatocytes were isolated and cultured as described (19). SNU-423 cells were obtained from ATCC and cultured as instructed. HepG3, QGY-7703, Hep3B, HuH7, Focus and HEK-293 cells were cultured as described (20). Cell viability was determined by standard MTT assays as described (5). Colony formation, anchorage-independent growth in soft agar and matrigel invasion assays were performed exactly as described (5). We next investigated the importance of c-Met activation in mediating LSF function. LSF-17 cells and QGY-7703 cells were treated with the chemical inhibitor of c-Met, SU11274 (5 μM), and cell viability and Matrigel invasion was monitored. […] For invasion assay cells were treated with SU11274 for 24 h, a time point when no significant effect on cell viability was observed.

[7] = system: QGY-7703 cells; experiment: Cell viability by standard MTT assay, QGY-7703 cells; format: cell-based, human; details: SU11274 5 μM
Description: as §1, §3, §4

[8] = system: LSF-17 cells; experiment: Cell viability by standard MTT assay, LSF-17 cells; format: cell-based, human; details: SU11274 5 μM
Description: as §1, with “(p<0.05). Primary rat hepatocytes were isolated and cultured as described (19). SNU-423 cells were obtained from ATCC and cultured as instructed. HepG3, QGY-7703, Hep3B, HuH7, Focus and HEK-293 cells were cultured as described (20). Cell viability was determined by standard MTT assays as described (5). Colony formation, anchorage-independent growth in soft agar and matrigel invasion assays were performed exactly as described (5). […] LSF-17 cells and QGY-7703 cells were treated with the chemical inhibitor of c-Met, SU11274 (5 μM), and cell viability and Matrigel invasion was monitored. […]” for “(p<0.05).”

[9] = system: LSF-17 cells; experiment: Matrigel invasion assay, LSF-17 cells; format: cell-based, human
Description: FIGS. 8A-D. Inhibition of OPN abrogates LSF-induced tumorigenesis and metastasis. The indicated clones were subcutaneously implanted in athymic nude mice. A. Tumor volume and tumor weight were measured 3 weeks after implantation. B. Graphical representation of metastatic lung nodules in the animals injected with the LSF-17consh-15 and LSF-17-OPNsh-18 clones via tail vein. The data represent mean±SEM. Inset: H&E sections of lungs of animals injected with the indicated clones. C. Parental HepG3 cells were treated with conditioned media from Control-8 or LSF-17 clone of HepG3 cells and then subjected to matrigel invasion. D. Matrigel invasion assay using LSF17 clone of HepG3 cells in the presence of neutralizing antibodies. Integrin: anti-αvβ3 integrin antibody. […]
FIGS. 12A-F. Inhibition of CD44 and c-Met by SU11274 blocks LSF function. […] F. HepG3 cells were untreated or treated with OPN (100 ng/ml) and with SU11274 (5 μM) for 24 h and the expression of the indicated proteins were detected by Western blot analysis. […]
as §4
We next investigated the importance of c-Met activation in mediating LSF function. LSF-17 cells and QGY-7703 cells were treated with the chemical inhibitor of c-Met, SU11274 (5 μM), and cell viability and Matrigel invasion was monitored. […]

[10] = treated 24 h, then SU11274-free during invasion assay
[11] = co-treatment with SU11274 5 μM, 24 h

## OPN: purified osteopontin, a secreted protein, added to cells at 100 ng/ml
[1]; OPN 100 ng/ml, 24 h
  activation of Akt: significantly activated
[1]; OPN 100 ng/ml, 24 h, control group 0.58
  p-Akt/Akt ratio: 1.42
[2]; serum-containing culture, OPN 100 ng/ml
  binding affinity between c-Met and CD44: did not affect the binding affinity
[2]; serum-free conditions, OPN 100 ng/ml 24 h
  association between CD44 and phospho-c-Met: significantly increased
[3]; OPN 100 ng/ml
  activation of ERK: significantly activated
[4]; OPN 100 ng/ml, 24 h
  activation of c-Met: significantly activated
[4]; OPN treatment
  total c-Met level: did not change
[4]; purified OPN 100 ng/ml
  activated c-Met level at 6 h post-treatment: remained higher than basal level
  time of peak level of c-Met activation post-treatment: 30 min

## Cc1[nH]c(/C=C2\C(=O)Nc3ccc(S(=O)(=O)N(C)c4cccc(Cl)c4)cc32)c(C)c1C(=O)N1CCN(C)CC1 [SU11274]
[5]; SU11274 5 μM, 24 h
  Matrigel invasion: significantly inhibited
[5]; [10]
  Matrigel invasion after removal of SU11274: significantly rescued the cells from inhibition of invasion
[6]
  viability of parental HepG3 cells: did not affect the viability
[1]; OPN 100 ng/ml plus SU11274, 24 h
  p-Akt/Akt ratio: 0.63
[1]; SU11274 alone (basal), control group 0.58
  p-Akt/Akt ratio: 0.05
[1]; [11]
  inhibition of basal and OPN-induced activation of Akt: significant inhibition
[7]
  cell viability (MTT): significantly decreased
[3]; SU11274 5 μM
  inhibition of basal and OPN-induced activation of ERK: partial inhibition
[8]
  cell viability (MTT): significantly decreased
[4]; [11]
  inhibition of basal and OPN-induced activation of c-Met: significant inhibition
[9]; SU11274 5 μM, 24 h
  Matrigel invasion: significantly inhibited
[9]; [10]
  Matrigel invasion after removal of SU11274: significantly rescued the cells from inhibition of invasion
